Assays:
LATS1 = LATS1 (Homo sapiens (Human), UniProt O95835); assay: LATS1 biochemical assay (Table 1A, Compound Examples 1-290; method in the earlier part)
[1] = test system: YAP nuclear translocation in HaCaT cells; assay: YAP Translocation Assay (HaCaT Cells); type: cell-based, human; details: Homo sapiens, 24 hours
Procedure, shortened: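 HaCaT cells (20,000/well) in DMEM + 10% FBS were plated overnight at 37° C, then exposed to compound for 24 h at 37° C. Cells were fixed with PFA, permeabilized with 0.1% Triton/1.5% BSA and imaged by high-content imaging.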

[2] = test system: Phospho-YAP (SER127) in HaCaT cells; assay: pYAP HTRF Assay (HaCaT Cells); type: cell-based, human; details: Homo sapiens, 2 hours
Procedure, shortened: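 Phospho-YAP (Ser127) was measured by HTRF (665 nm/620 nm ratio) in HaCaT cells. Cells were grown 48 hours at 37° C at 5500 cells/well, exposed to compound for 2 hours, and incubated with detection reagents for 20 hrs at room temperature.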

[3] = test system: Phospho-YAP (Ser127) in JHH-5 cells; assay: pYAP HTRF Assay (JHH-5 cells); type: cell-based; details: 2 hours
Method: Briefly, JHH-5 cells are suspended at 0.48×10^6 cells/ml in William's E medium without phenol-red (Thermo Fisher Scientific Gibco catalog number A1217601) supplemented with 10% (v/v) heat-inactivated fetal bovine serum (Thermo Fisher Scientific Gibco catalog number 16140071) and penicillin-streptomycin at 100 U/ml each (Thermo Fisher Scientific Gibco catalog number 15140122). Cells are dispensed into 384well clear bottom culture plates (50 ul/well, at 24000 cells per well, Greiner catalog number 781091), and incubated for 24 hours in a cell culture incubator at 37° C. Test compounds are transferred into culture plates containing JHH-5 cells using an Echo550 (Labcyte) acoustic dispenser (50 nl/well), followed by incubation for 2 hours at 37° C. Lysis buffer (part of CisBio kit catalog number 64YAPPEI) is added to the assay plates as a four-fold concentrate (corresponding to 16 ul/well) and incubated for 30 minutes at room temperature with agitation. Lysate is transferred from culture plates into white low-volume 384well assay plates (12 ul/well, Greiner catalog number 784075), followed by the addition of 3 ul/well of detection antibodies (part of CisBio kit catalog number 64YAPPEI: 1:40 dilution of each pYAP d2 antibody and pYAP cryptate antibody stocks). The plates are sealed and incubated overnight (18 hours) at room temperature protected from light. Plates are read on an EnVision plate reader (Perkin Elmer) at emission wavelengths of 665 nm and 620 nm. The HTRF signal ratio x per well is calculated as [x=Signal(665 nm)/Signal(620 nm)×10000] as specified in the manufacturer's protocol.

[4] = target: Human LATS1 kinase domain protein (Homo sapiens (Human), UniProt O95835); assay: LATS1 Biochemical Caliper Assay (Compound Examples 291-335); details: Caliper EZ Reader
Method: The LATS1 biochemical Caliper assay was performed as following.
Human LATS1 kinase domain protein was purchased from Carnabio (catalogue number 01-123; lot 15CBS-0098D). Human LATS1, catalytic domain [589-1130(end) amino acids of accession number NP_004681.1] was co-expressed as N-terminal GST-fusion protein (90 kDa) with human His-tagged MOBKL1A [1-216(end) amino acids of accession number NP_775739.1] using baculovirus expression system. GST-LATS1 was purified by using glutathione sepharose chromatography. The substrate (Fluo-SGKtide; Peptide for LATS1; lot BS-41067) has the following sequence: 5-Fluo-Nva-[…]-amide (SEQ ID NO: 27) x TFA and was purchased from Biosyntan.
The reaction is performed in reaction buffer containing 50 mM Hepes pH 7,5; 0.02% Tween20; 0.02% BSA; 1 mM DTT; 10 uM Na3VO4 and 10 mM beta-Glycerolphosphat and fresh added 1 mM MgCl2 and qsp H2O.
The substrate solution (2× conc.) in Reaction Buffer contains 300 μM ATP and 4 μM Fluo-SGKtide.
The kinase solution (2× conc.) in Reaction Buffer contains 20 nM LATS1 kinase. 4.5 μL of 2× conc. Kinase solution, 50 nL of 1.8 mM compounds and 4.5 μL of substrate solution were added into 384-well plates black small volume from Greiner and incubated at 32° C. for 1 hour. 15 μL of stop buffer containing 100 mM Hepes pH 7,5; 5% DMSO; 0.1% Coating reagent; 10 mM EDTA and 0.02% Brij35 and qsp H2O to each well to terminate the reaction.
Substrates and products were electrophoretically separated using the microfluidic-based Caliper EZ Reader System (Caliper Life Sciences) using a 12 sipper chip (cat 760404). The separation takes place in Coating Buffer (idem Stop buffer) and containing 0.1% Coating reagent CR3 and 0.5% coating reagent CR8 (Perkin Elmer).
Plates were read using a LED with an excitation at 488 nm and a detection at 520 nm to 5 quantify the fluorescence intensity.

Sequence of LATS1 (O95835 whole entry, looked up): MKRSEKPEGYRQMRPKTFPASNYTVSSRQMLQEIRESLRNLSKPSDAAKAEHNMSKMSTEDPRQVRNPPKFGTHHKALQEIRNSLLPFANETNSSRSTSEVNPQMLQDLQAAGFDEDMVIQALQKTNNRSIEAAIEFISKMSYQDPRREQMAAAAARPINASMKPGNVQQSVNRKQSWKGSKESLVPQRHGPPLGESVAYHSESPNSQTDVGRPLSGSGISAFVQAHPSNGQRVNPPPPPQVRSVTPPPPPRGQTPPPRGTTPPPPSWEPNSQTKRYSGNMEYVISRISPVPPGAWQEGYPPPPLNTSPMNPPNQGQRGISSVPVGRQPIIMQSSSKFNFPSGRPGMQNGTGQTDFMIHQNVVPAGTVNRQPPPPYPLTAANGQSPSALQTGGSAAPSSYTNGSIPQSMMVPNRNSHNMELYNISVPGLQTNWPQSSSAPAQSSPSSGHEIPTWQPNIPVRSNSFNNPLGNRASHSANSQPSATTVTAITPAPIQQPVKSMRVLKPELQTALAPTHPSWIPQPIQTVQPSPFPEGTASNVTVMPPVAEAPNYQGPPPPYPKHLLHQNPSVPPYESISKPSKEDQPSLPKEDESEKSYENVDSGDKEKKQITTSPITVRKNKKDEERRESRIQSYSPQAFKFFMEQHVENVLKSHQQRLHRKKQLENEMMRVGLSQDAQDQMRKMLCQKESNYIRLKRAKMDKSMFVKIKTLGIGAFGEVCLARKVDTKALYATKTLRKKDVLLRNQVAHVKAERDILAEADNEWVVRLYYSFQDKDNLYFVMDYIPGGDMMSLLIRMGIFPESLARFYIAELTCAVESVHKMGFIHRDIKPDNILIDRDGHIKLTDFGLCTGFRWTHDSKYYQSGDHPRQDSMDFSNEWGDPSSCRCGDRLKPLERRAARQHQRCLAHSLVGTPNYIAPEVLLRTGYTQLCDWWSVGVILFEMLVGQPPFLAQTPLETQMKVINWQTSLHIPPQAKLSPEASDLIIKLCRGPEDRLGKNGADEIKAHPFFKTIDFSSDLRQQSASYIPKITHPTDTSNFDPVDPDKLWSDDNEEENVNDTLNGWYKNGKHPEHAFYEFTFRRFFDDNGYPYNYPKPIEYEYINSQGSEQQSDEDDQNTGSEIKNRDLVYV
Sequence of LATS1 (Q7L9L4 whole entry partner, looked up): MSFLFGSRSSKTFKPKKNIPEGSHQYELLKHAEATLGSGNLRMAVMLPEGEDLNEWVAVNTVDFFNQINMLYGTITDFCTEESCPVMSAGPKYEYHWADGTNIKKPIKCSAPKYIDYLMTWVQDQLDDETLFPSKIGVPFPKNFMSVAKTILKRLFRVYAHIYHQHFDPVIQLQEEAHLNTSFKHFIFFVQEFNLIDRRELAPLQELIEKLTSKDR
Sequence of Human LATS1 kinase domain protein (O95835 whole entry, looked up, the tested form may be a part): as the sequence (O95835 whole entry, looked up) above
Sequence of Human LATS1 kinase domain protein (Q7L9L4 whole entry partner, looked up, the tested form may be a part): as the sequence (Q7L9L4 whole entry partner, looked up) above

| SMILES | IC50 [4] [nM] | further results |
| --- | --- | --- |
| CC(C)(C)Nc1cc(-c2ccnc(N)n2)nc2cnccc12 [Example 271, 2-(2-aminopyrimidin-4-yl)-N-tert-butyl-1,7-naphthyridin-4-amine] |  | IC50 (LATS1): 2 nM; EC50 [1]: 1070 nM; IC50 [2]: 187 nM; IC50 [3]: 0.8 µM |
| CC(C)(C)Nc1cc(-c2ccnc3[nH]ccc23)nc2cnccc12 [Example 272, N-tert-butyl-2-{1H-pyrrolo[2,3-b]pyridin-4-yl}-1,7-naphthyridin-4-amine] |  | IC50 (LATS1): 2 nM; EC50 [1]: 5970 nM; IC50 [2]: 3510 nM; IC50 [3]: 8.1 µM |
| CC(C)(C)Nc1cc(-c2ccnnc2)nc2cnccc12 [Example 273, N-tert-butyl-2-(pyridazin-4-yl)-1,7-naphthyridin-4-amine] |  | IC50 (LATS1): 463 nM; EC50 [1]: > 20000 nM; IC50 [2]: > 100000 nM; IC50 [3]: > 10 µM |
| CC(C)(C)Nc1cc(-c2ccncc2F)nc2cnccc12 [Example 280, N-tert-butyl-2-(3-fluoropyridin-4-yl)-1,7-naphthyridin-4-amine] |  | IC50 (LATS1): 3 nM; EC50 [1]: 2730 nM; IC50 [2]: 476 nM; IC50 [3]: 3.8 µM |
| CCC(C)(C)Nc1cc(-c2ccncc2F)nc2cnccc12 [Example 281, 2-(3-fluoropyridin-4-yl)-N-(2-methylbutan-2-yl)-1,7-naphthyridin-4-amine] |  | IC50 (LATS1): 4 nM; EC50 [1]: 2890 nM; IC50 [2]: 656 nM; IC50 [3]: 5.9 µM |
| CN1CCN(c2cc(-c3ccncc3)nc3cnccc23)CC1 [Example 291, 4-(4-methylpiperazin-1-yl)-2-(pyridin-4-yl)-1,7-naphthyridine] | 457 |  |
| c1cc(-c2cc(N3CCNCC3)c3ccncc3n2)ccn1 [Example 292, 4-(piperazin-1-yl)-2-(pyridin-4-yl)-1,7-naphthyridine] | 43.3 |  |
| CC1CCCCN1c1cc(-c2ccncc2)nc2cnccc12 (centres unmarked) [Example 293, 4-(2-methylpiperidin-1-yl)-2-(pyridin-4-yl)-1,7-naphthyridine] | 16 |  |
| c1cc(-c2cc(NC3COC3)c3ccncc3n2)ccn1 [Example 296, N-(oxetan-3-yl)-2-(pyridin-4-yl)-1,7-naphthyridin-4-amine] | 209 |  |
| CC1(C)CN(c2cc(-c3ccncc3)nc3cnccc23)CCN1 [Example 298, 4-(3,3-dimethylpiperazin-1-yl)-2-(pyridin-4-yl)-1,7-naphthyridine] | 59 |  |
| CC1(C)CN(c2cc(-c3ccncc3)nc3cnccc23)CCO1 [Example 299, 2,2-dimethyl-4-(2-(pyridin-4-yl)-1,7-naphthyridin-4-yl)morpholine] | 97.1 |  |
| CN(C)C(C)(C)CNc1cc(-c2ccncc2)nc2cnccc12 [Example 302, N^2,N^2,2-trimethyl-N^1-(2-(pyridin-4-yl)-1,7-naphthyridin-4-yl)propane-1,2-diamine] | 59.5 |  |
| FC(F)(F)[C@H]1CN(c2cc(-c3ccncc3)nc3cnccc23)CCN1 [Example 305, (R)-2-(pyridin-4-yl)-4-(3-(trifluoromethyl)piperazin-1-yl)-1,7-naphthyridine] | 663 |  |
| CC(C)(CNc1nc(-c2ccncc2)nc2cnccc12)NC(=O)OC(C)(C)C [Example 310, tert-butyl (2-methyl-1-((2-(pyridin-4-yl)pyrido[3,4-d]pyrimidin-4-yl)amino)propan-2-yl)carbamate] | 164 |  |
| CC(C)(C)OC(=O)NCCNc1nc(-c2ccncc2)nc2cnccc12 [Example 311, tert-butyl (2-((2-(pyridin-4-yl)pyrido[3,4-d]pyrimidin-4-yl)amino)ethyl)carbamate] | 1030 |  |

The next lines start with results.

| IC50 [4] [nM] | SMILES | further results |
| --- | --- | --- |
| 467 | CN(C)C(=O)C(C)(C)Nc1nc(-c2ccncc2)nc2cnccc12 [Example 314, N,N,2-trimethyl-2-((2-(pyridin-4-yl)pyrido[3,4-d]pyrimidin-4-yl)amino)propanamide] |  |
| 42.5 | CC(C)(CNC(=O)OC(C)(C)C)CNc1nc(-c2ccncc2)nc2cnccc12 [Example 316, tert-butyl (2,2-dimethyl-3-((2-(pyridin-4-yl)pyrido[3,4-d]pyrimidin-4-yl)amino)propyl)carbamate] |  |
| 3.8 | FC(F)(F)[C@@H]1CN(c2nc(-c3ccncc3)nc3cnccc23)CCN1 [Example 321, (S)-2-(pyridin-4-yl)-4-(3-(trifluoromethyl)piperazin-1-yl)pyrido[3,4-d]pyrimidine] |  |
| 29.2 | CCOC(=O)C(C)(C)Nc1nc(-c2ccncc2)nc2cnccc12 [Example 322, ethyl 2-methyl-2-((2-(pyridin-4-yl)pyrido[3,4-d]pyrimidin-4-yl)amino)propanoate] |  |
| 4.5 | CN(C)CC(C)(C)CNc1nc(-c2ccncc2)nc2cnccc12 [Example 323, N^1,N^1,2,2-tetramethyl-N^3-(2-(pyridin-4-yl)pyrido[3,4-d]pyrimidin-4-yl)propane-1,3-diamine] |  |
| 10.4 | CC(C)(C)Nc1nc(-c2nonc2N)nc2cnccc12 [Example 324, 4-(4-(tert-butylamino)pyrido[3,4-d]pyrimidin-2-yl)-1,2,5-oxadiazol-3-amine] |  |
| 3.7 | CN(C)C(C)(C)CNc1nc(-c2ccncc2)nc2cnccc12 [Example 325, N^2,N^2,2-trimethyl-N^1-(2-(pyridin-4-yl)pyrido[3,4-d]pyrimidin-4-yl)propane-1,2-diamine] |  |
| 57.2 | CC(C)(Nc1nc(-c2ccncc2)nc2cnccc12)C(N)=O [Example 326, 2-methyl-2-((2-(pyridin-4-yl)pyrido[3,4-d]pyrimidin-4-yl)amino)propanamide] |  |
| 125 | C[C@](O)(CNc1cc(-c2ccncc2)nc2cnccc12)C(F)(F)F [Example 327, (S)-1,1,1-trifluoro-2-methyl-3-((2-(pyridin-4-yl)-1,7-naphthyridin-4-yl)amino)propan-2-ol] |  |
| 18.9 | CC(C)(CCNC(=O)OC(C)(C)C)Nc1nc(-c2ccncc2)nc2cnccc12 [Example 328, tert-butyl (3-methyl-3-((2-(pyridin-4-yl)pyrido[3,4-d]pyrimidin-4-yl)amino)butyl)carbamate] |  |
| 3 | CN(C)CC(C)(C)CN(C)c1nc(-c2ccncc2)nc2cnccc12 [Example 329, N^1,N^1,N^3,2,2-pentamethyl-N^3-(2-(pyridin-4-yl)pyrido[3,4-d]pyrimidin-4-yl)propane-1,3-diamine] |  |
| 3.1 | CCN(CC)CCC(C)(C)Nc1nc(-c2ccncc2)nc2cnccc12 [Example 330, N,N-diethyl-3-methyl-N^3-(2-(pyridin-4-yl)pyrido[3,4-d]pyrimidin-4-yl)butane-1,3-diamine] |  |
| 10.5 | CN(C)CCC(C)(C)Nc1nc(-c2ccnc(F)c2)nc2cnccc12 [Example 331, N^3-(2-(2-fluoropyridin-4-yl)pyrido[3,4-d]pyrimidin-4-yl)-N^1,N^1,3-trimethylbutane-1,3-diamine] |  |
| 7.6 | Cc1n[nH]c(C)c1-c1nc(NC(C)(C)CCN(C)C)c2ccncc2n1 [Example 332, N^3-(2-(3,5-dimethyl-1H-pyrazol-4-yl)pyrido[3,4-d]pyrimidin-4-yl)-N^1,N^1,3-trimethylbutane-1,3-diamine] |  |

Reference: US11458138B2 (Novartis AG, priority 2017, dated 2022)
